The source of these data is patent publication US20220249394A1 (priority 2019, published 2022).

In the test the target is protease K-resistance prion protein (PrP^Sc) in ScN2a cells (Mus musculus, UniProt P04925). In kind it is cell-based. The settings on record: 6 mM HFIP for 24 hours, protease K 10 μg/ml 37° C. 30 minutes, Western blotting, FIG. 2 #5 to #8.

As to `OC(C(F)(F)F)C(F)(F)F` [HFIP, 1,1,1,3,3,3-hexafluoro-2-propanol], the “resistance of prion protein to protease K” value was “resistance to protease K was reduced”.
